Data: paper PMC11887370, “The universal accumulation of p-aminophenol during the microbial degradation of analgesic and antipyretic acetaminophen in WWTPs: a novel metagenomic perspective” (Microbiome, 2025)

Assays:
Assay in all cases: UV-vis spectrophotometric hydrolysis assay, Michaelis-Menten fit
ApaA = system: T1, ApaA; assay type: biochemical, Rhodococcus sp. NyZ502; conditions: 100 mM phosphate buffer pH 7.4; 30 °C
T1 construct: His6-tagged, plasmid pTIP-apaA (pTIPQC1), expressed in Rhodococcus erythropolis L88, Ni-NTA purified

[1] = substrate: CC(=O)Nc1ccc(O)cc1; assay type: biochemical, bacterium CSBL00001; conditions: 100 mM phosphate buffer pH 7.4, 30 °C
[2] = substrate: CC(=O)Nc1ccc([N+](=O)[O-])cc1; assay type: biochemical, bacterium CSBL00001; conditions: 100 mM phosphate buffer pH 7.4, 30 °C

## CC(=O)Nc1ccc(O)cc1 [Acetaminophen]
ApaA
  Km: 8.96 µM

## CC(=O)Nc1ccccc1 [acetanilide]
ApaA
  Km: 30.2 ± 3.86 µM

## CC(=O)Nc1ccc([N+](=O)[O-])cc1 [4-nitroacetanilide]
ApaA
  Km: 26.6 ± 4.21 µM

B1: AAA (bacterium CSBL00001) (protein)
chain: MGKSHSPVHWKSAAEIVELVKSKQISPREVVESTIDLIEQRDPGLNAVVYKAYDEAREKAAALERRIMQGEPVGMLAGVPTLMKDLFAAKPGWPSTLGGIRALKDARGAAGVWSTYPLKMSGEDSLLLGQTNSPVYGFRGTTDNTFFGPTRNPFNLDFNAGGSSGGAAALVADGIVPVAGGTDGGGSIRIPAAWTNTYGFQPSIGRVPFKSRPNAFHPGPYLYEGPITRTVRDAALAMNVLHGFDRRDPASLRVKLDFTSALAQGVRGKKIGLTLNYGVFPVQQEIQDLIGKAARVFTELGAHVEFVDLGIPYSQKQMSDAWCRMIAIPTVASMQALRKEGIDLYGEHRADIPDALMKWIDAVADISVQQISADQLLRTTVFDCMNGVFDRFDLLLAPTLACMPVRNATDGCTEGPSQINGEEIDPLIGWCMTYLTNFSGHPSASVPAGLIDGLPAGMLIIGDRQADLDVIAASAAFERASPWSQYYDIPAGRPL
notes: His6-tagged, plasmid pET-aaa (pET-28a(+)), expressed in E. coli BL21(DE3), Ni-NTA purified
[1]
  Km: 22.13 µM
[2]
  Km: 16.82 ± 5.55 µM
  kcat: 5.65 ± 0.54 s⁻¹
